For eight compounds, IC50 results are on record in patent US11591326B2, “Inhibitors of protein arginine methyltransferase 5 (PRMT5), pharmaceutical products thereof, and methods thereof” (PHARMABLOCK SCIENCES (NANJING), INC., priority 2018, dated 2023).

Molecules are shown by their SMILES.

The target in assay [1] is Human recombinant PRMT5 in complex with human recombinant MEP50 (Homo sapiens (Human), UniProt O14744). Description: PRMT5/MEP50 AlphaLISA enzyme inhibitory assay. Type of assay: biochemical. The settings on record: PRMT5/MEP50 25 nM, SAM 10 μM, Biotin-H4 peptide 30 nM. In a few lines:
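Insect-cell-expressed PRMT5/MEP50 (25 nM) preincubated with SAM (10 μM), then 15 min with compound in pH 8.5 Tris buffer, 1% DMSO. Biotin-H4(1–21) peptide (30 nM) reaction ran 120 min at room temperature. H4R3 methylation detected by AlphaLISA; IC50 from four-parameter sigmoidal fit.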
For orientation: In Alpha technology, singlet oxygen from a donor bead excites a nearby acceptor bead.

Assay [2] deals with Pancreatic Carcinoma MIA PaCa-2 cell. Description: Cell proliferation inhibition, MIA PaCa-2 (CellTiter-Glo). Type of assay: cell-based. The settings on record: Homo sapiens, MIA PaCa-2, incubated for 12 days (read after 8 or 12 days), read-out: IC50 (μM) MIA PaCa2. The source says: (§1) Materials and Cell Lines: Z-138, U251, and MIA PaCa2 cells were purchased from ATCC (American Type Culture Collection, Manassas, Va.) and Chinese Academy of Science (Shanghai, China). Iscove's Modified Dulbecco's Medium (IMDM), Dulbecco's Modified Eagle Medium (DMEM), penicillin-streptomycin, heat inactivated fetal bovine serum (FBS), and horse serum was purchased from ThermoFisher, Waltham, Mass., USA. Corning 96- and 384-well cell culture plates were purchased from ThermoFisher, Waltham, Mass., USA. Cell-Titer Glo® was purchased from Promega Corporation, Madison, Wis., USA.
In order to evaluate the inhibitory ability of compounds synthesized on the proliferation of the Pancreatic Carcinoma MIA PaCa-2 cell, exponentially growing cells were seeded in the culture media of DMEM with 10% FBS, 2.5% horse serum, 1 mM of Sodium Pyruvate and 1% penicillin-streptomycin at a concentration of 2500 cells/ml in a 384-well plate with 20 ul per well and incubated overnight at 37° C., 5% CO2 incubator. Compounds were prepared as 10-point, 3-fold serial dilutions in DMSO, beginning at 6 mM. 1 μl of DMSO solutions from the compound stock plates were added to 99 ul of cell media (final top concentration of compound in the assay was 30 uM and the final concentration of DMSO was 0.5%). 20 μL of compound solutions in media were added to each well of MIA PaCa-2 cell plates. After adding compound solutions, assay plates were incubated for 12 days at 37° C., 5% CO2. During this incubation period, cell media was changed every 4 days. After removing old media from cell plates, 40 ul of media with testing compounds dissolved, which were prepared by adding 1 ul of compound DMSO serial solutions to 199 ul of cell media, were added to the assay plates with the same layout as they were initially prepared. After 8 or 12 days, cell viability was measured using the CellTiter-Glo assay kit from Promega (Madison, Wis., USA) by quantitating the ATP present in the cell cultures. 20 μL of CellTiter-Glo reagent was added to each well of the cell plates. Luminescence was read after 10 minute of incubation with the Envision multiple plate reader from PerkinElmer (Waltham, Mass., USA). The concentrations of compounds inhibiting cell viability by 50% (IC50 values) were determined using a sigmoidal dose-response model (variable slopes, four parameters) in Prism 7 (La Jolla, Calif., USA).
(In ATP-based viability assays light output follows the ATP content of the culture.)

The subject of assay [3] is Mantle Cell Lymphoma Z-138 cell. Description: Cell proliferation inhibition, Z-138 (CCK8). Type of assay: cell-based. Particulars: Z-138, incubated 4 days.
Text: as §1
In order to evaluate the inhibitory ability of compounds synthesized on the proliferation of the Mantle Cell Lymphoma Z-138 cell, exponentially growing cells were seeded in the media of IMDM with 10% horse serum and 1% penicillin-streptomycin at a concentration of 30000 cells/ml in a 96-well plate with 100 ul per well and incubated overnight at 37° C., 5% CO2 incubator. Compounds were prepared as 10-point, 3-fold serial dilutions in DMSO, beginning at 6 mM. 1 μl of DMSO solutions from the compound stock plates were added to 99 ul of cell culture media (final top concentration of compound in the assay was 30 uM and the final concentration of DMSO was 0.5%). 100 μL of compound solutions in media were added to each well of Z-138 cell plates. After adding compound solutions, assay plates were incubated for 4 days at 37° C., 5% CO2. Cell viability was measured using the Cell Counting Kit-8 (CCK8) obtained from the Beyotime Biotehnology, Shanghai, China. 20 ul of CCK8 reagent was added to each well of the Z-138 assay plate which was incubated at 37° C. for 2 hours. O.D. at 450 nm was read with the FlexStation 3 microplate reader (Molecular Devices, Sunnyvale, Calif. 94089 USA). The concentrations of compounds inhibiting cell viability by 50% (IC50 values) were determined using a sigmoidal dose-response model (variable slopes, four parameters) in Prism 7 (La Jolla, Calif.).

In another assay the test system is Glioblastoma U-251 cell. Description: Cell proliferation inhibition, U-251 (CellTiter-Glo). Type of assay: cell-based. The settings on record: Homo sapiens, U-251, incubated for 12 days (read after 8 or 12 days).
Text: as §1
In order to evaluate the inhibitory ability of compounds synthesized on the proliferation of the Glioblastoma U-251 cell, exponentially growing cells were seeded in the cell culture media of DMEM with 10% FBS and 1% penicillin-streptomycin at a concentration of 10000 cells/ml in a 384-well plate with 20 ul per well and incubated overnight at 37° C., 5% CO2 incubator. Compounds were prepared as 10-point, 3-fold serial dilutions in DMSO, beginning at 6 mM. 1 μl of DMSO solutions from the compound stock plates were added to 99 ul of cell culture media (final top concentration of compound in the assay was 30 uM and the final concentration of DMSO was 0.5%). 20 μL of compound solutions in media were added to each well of U-251 cell plates. After adding compound solutions, assay plates were incubated for 12 days at 37° C., 5% CO2. During this incubation period, cell culture media with freshly dissolved testing compounds was changed every 4 days. After removing old media from cell plates, 40 ul of media with testing compounds dissolved, which were prepared by adding 1 ul of compound DMSO serial solutions to 199 ul of cell media, were added to the assay plates with the same layout as they were initially prepared. After 8 or 12 days, cell viability was measured using the CellTiter-Glo assay kit from Promega (Madison, Wis., USA) by quantitating the ATP present in the cell cultures. 20 μL of CellTiter-Glo reagent was added to each well of the cell plates. Luminescence was read after 10 minute of incubation with the Envision multiple plate reader from PerkinElmer (Waltham, Mass., USA). The concentrations of compounds inhibiting cell viability by 50% (IC50 values) were determined using a sigmoidal dose-response model (variable slopes, four parameters) in Prism 7 (La Jolla, Calif., USA).

Chain of Human recombinant PRMT5 in complex with human recombinant MEP50 (O14744 whole entry): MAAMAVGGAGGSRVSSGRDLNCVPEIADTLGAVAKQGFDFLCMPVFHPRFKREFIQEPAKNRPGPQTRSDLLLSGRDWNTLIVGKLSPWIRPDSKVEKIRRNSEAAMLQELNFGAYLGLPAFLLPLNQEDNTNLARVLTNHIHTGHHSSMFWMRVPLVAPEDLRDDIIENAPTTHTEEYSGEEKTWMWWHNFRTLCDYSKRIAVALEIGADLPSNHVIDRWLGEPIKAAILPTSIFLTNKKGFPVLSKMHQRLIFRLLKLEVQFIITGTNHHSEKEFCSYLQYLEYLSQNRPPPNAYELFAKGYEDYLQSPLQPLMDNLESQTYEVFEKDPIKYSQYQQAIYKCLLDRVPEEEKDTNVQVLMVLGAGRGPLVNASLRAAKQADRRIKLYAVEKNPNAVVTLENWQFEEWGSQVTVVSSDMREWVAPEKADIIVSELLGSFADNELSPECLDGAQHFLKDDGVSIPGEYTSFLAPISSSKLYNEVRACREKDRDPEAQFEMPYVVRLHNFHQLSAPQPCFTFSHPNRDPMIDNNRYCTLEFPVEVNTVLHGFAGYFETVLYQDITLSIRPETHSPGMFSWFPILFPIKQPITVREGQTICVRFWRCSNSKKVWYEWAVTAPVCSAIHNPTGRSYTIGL
Chain of Human recombinant PRMT5 in complex with human recombinant MEP50 (Q9BQA1 whole entry partner): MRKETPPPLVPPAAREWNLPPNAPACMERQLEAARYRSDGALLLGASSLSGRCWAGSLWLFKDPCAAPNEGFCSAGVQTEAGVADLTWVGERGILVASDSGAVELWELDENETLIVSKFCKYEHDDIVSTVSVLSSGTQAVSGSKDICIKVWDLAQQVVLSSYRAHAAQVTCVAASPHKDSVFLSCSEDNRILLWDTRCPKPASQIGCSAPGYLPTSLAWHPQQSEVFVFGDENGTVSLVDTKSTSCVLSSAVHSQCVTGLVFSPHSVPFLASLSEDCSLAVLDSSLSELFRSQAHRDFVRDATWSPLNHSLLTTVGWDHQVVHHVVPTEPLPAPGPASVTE

Consider `CC(=O)N1CCC(Nc2cc(F)c3c(c2)C(=O)N(C[C@H](O)CN2CCc4ccccc4C2)CCO3)CC1` [Compound 2a, (R)-7-((1-acetylpiperidin-4-yl)amino)-4-(3-(3,4-dihydroisoquinolin-2(1H)-yl)-2-hydroxypropyl)-9-fluoro-3,4-dihydrobenzo[f][1,4]oxazepin-5(2H)-one], for which the 50% inhibitory concentration (IC50) in assay [1] amounted to 57 nM; in assay [2], 0.024 µM; in assay [3] (Homo sapiens, Z-138, 96 h), 0.041 µM.

For the compound `Cn1cc(Nc2ccc3c(c2)C(=O)N(C[C@H](O)CN2CCc4ccccc4C2)CC3)cn1` [Compound 12a, (R)-2-(3-(3,4-dihydroisoquinolin-2(1H)-yl)-2-hydroxypropyl)-7-((1-methyl-1H-pyrazol-4-yl)amino)-3,4-dihydroisoquinolin-1(2H)-one], the 50% inhibitory concentration (IC50) in assay [1] is 12 nM; in the assay with Glioblastoma U-251 cell, 0.48 µM; in assay [2], 0.66 µM; in assay [3] (Homo sapiens, Z-138, 96 h), 0.13 µM.

`O=C1c2cc(Nc3ccnnc3)ccc2CCN1C[C@H](O)CN1CCc2ccccc2C1` [Compound 28a, (R)-2-(3-(3,4-dihydroisoquinolin-2(1H)-yl)-2-hydroxypropyl)-7-(pyridazin-4-ylamino)-3,4-dihydroisoquinolin-1(2H)-one]: the IC50 in assay [1] was 4.9 nM; with Glioblastoma U-251 cell it was 0.5 µM; in assay [2], 0.68 µM; in assay [3] (Homo sapiens, Z-138, 96 h), 0.029 µM.

`Cn1cc(Nc2ccc3c(c2)C(=O)N(C[C@H](O)CN2CCc4ccccc4C2)CCO3)cn1` [Compound 29a, (R)-4-(3-(3,4-dihydroisoquinolin-2(1H)-yl)-2-hydroxypropyl)-7-((1-methyl-1H-pyrazol-4-yl)amino)-3,4-dihydrobenzo[f][1,4]oxazepin-5(2H)-one]: the IC50 in assay [1] is 8.4 nM; in the assay with Glioblastoma U-251 cell, 0.14 µM; in assay [2] it was 0.4 µM; in assay [3] (Homo sapiens, Z-138, 96 h), 0.073 µM.

For the compound `O=C1c2cc(Nc3ccnnc3)ccc2OCCN1C[C@H](O)CN1CCc2ccccc2C1` [Compound 30a, (R)-4-(3-(3,4-dihydroisoquinolin-2(1H)-yl)-2-hydroxypropyl)-7-(pyridazin-4-ylamino)-3,4-dihydrobenzo[f][1,4]oxazepin-5(2H)-one], the concentration for half-maximal inhibition (IC50) is 4.6 nM in assay [1]; 0.18 µM with Glioblastoma U-251 cell; 0.23 µM in assay [2]; 0.018 µM in assay [3] (Homo sapiens, Z-138, 96 h).

Regarding `CC(=O)N1CCC(Nc2ccc3c(c2)C(=O)N(C[C@@H](O)CN2CCc4ccccc4C2)CCO3)CC1` [Compound 52b], the half-maximal inhibitory concentration (IC50) in assay [1] was determined as 108 nM; in the assay on Glioblastoma U-251 cell, 5.8 µM; in assay [2], 0.83 µM; in assay [3] (Homo sapiens, Z-138, 96 h), 0.137 µM.

Take `O=C(NC[C@H](O)CN1CCc2ccccc2C1)c1cc(NC2COC2)ncn1` [Compound C1, reference compound]: the half-maximal inhibitory concentration (IC50) with Glioblastoma U-251 cell turned out to be 1.2 µM; in assay [2], 2 µM; in assay [3] (Homo sapiens, Z-138, 96 h) it was 0.11 µM; in assay [3] (listed as Ref 1 (EPZ-015666a)) it was 0.16 µM.

For the compound `O=C(NC[C@@H](O)CN1CCc2ccccc2C1)c1cc(NC2COC2)ncn1` [Compound C2, reference compound], the half-maximal inhibitory concentration (IC50) turned out to be 28.3 µM with Glioblastoma U-251 cell; 12.1 µM in assay [2]; 9.1 µM in assay [3] (Homo sapiens, Z-138, 96 h).

For orientation: IC50 means the concentration needed to halve the response being measured.
